Among the test systems are SK-MEL-5; UACC-62; LOX IMVI; HCT-15; CCRF-CEM; 786-0; OVCAR-8; TK-10; OVCAR-5; COLO 205; SF-539; NCI-H522; SNB-19; CAKI-1; IGROV-1; RPMI-8226; SN12C.
Test in all cases: inhibition of tumour cell growth, NCI panel, 48 h

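Interpolation was linear, between the two tested concentrations surrounding the appropriate level; five concentrations were tested over 48 hours in 96-well plates. GI50 = concentration required for 50% inhibition of growth.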 Activity calls are given as the source filed them. Cut-off read from the data, not from the text of the source: active = GI50 up to about 1.1 µM and inactive = higher.

Take `CC1=C(O)C(=O)C2C(=O)C1C(C)C2c1ccc(C)cc1` (stereo not drawn): the GI50 was > 100 µM (inactive) with SK-MEL-5; > 100 µM (inactive) in the experiment on UACC-62; > 100 µM (inactive) in the experiment on LOX IMVI; greater than 100 µM in the experiment on HCT-15; > 100 µM (inactive) in the experiment on CCRF-CEM; > 100 µM (inactive) with 786-0. Moreover, the GI50 with OVCAR-8, in the experiment with TK-10, with OVCAR-5, in the experiment with COLO 205, in the experiment on SF-539 and in the experiment on NCI-H522 was > 100 µM (inactive) in each case. The GI50 with SNB-19, in the experiment with CAKI-1, in the experiment on IGROV-1 and with RPMI-8226 was > 100 µM (inactive) each time.

As to `C[C@]12CC[C@H](OC(=O)Nc3ccccc3)CC1=CC[C@@H]1C2CC[C@]2(C)/C(=N/OC(=O)Nc3ccccc3)CCC12` (stereo partly drawn), the GI50 is 5.35 µM (inactive) in the experiment with SK-MEL-5; > 100 µM (inactive) in the experiment on UACC-62; 5.32 µM (inactive) in the experiment on LOX IMVI; 1.77 µM with HCT-15; 2.83 µM (inactive) in the experiment on CCRF-CEM; > 100 µM (inactive) in the experiment with 786-0. The GI50 in the experiment on OVCAR-8 is 22.3 µM (inactive); with TK-10 it was 6.61 µM (inactive); in the experiment with OVCAR-5, 70.5 µM (inactive); in the experiment on COLO 205, 4.49 µM (inactive); in the experiment with SF-539, > 100 µM (inactive); in the experiment with SN12C it was 1.79 µM (inactive). Besides, the GI50 in the experiment with SNB-19 is 76.2 µM (inactive); with CAKI-1, 1.81 µM (inactive); with IGROV-1 it was 4.19 µM (inactive); in the experiment on RPMI-8226 it was 5.57 µM (inactive).

As for `CCc1cccc(C(C)C)c1NC(=O)CC1Sc2ccccc2NC1=O` (stereo not drawn), the GI50 in the experiment with SK-MEL-5 was 36.5 µM (inactive); in the experiment with LOX IMVI it was 45 µM (inactive); in the experiment on HCT-15, 47.9 µM; in the experiment on CCRF-CEM it was 47.5 µM (inactive); in the experiment on 786-0, 80 µM (inactive); in the experiment on OVCAR-8 it was 78 µM (inactive). The GI50 was > 100 µM (inactive) in the experiment with TK-10; > 100 µM (inactive) in the experiment with OVCAR-5; 50.4 µM (inactive) in the experiment on COLO 205; > 100 µM (inactive) with SF-539; > 100 µM (inactive) with SN12C; 33.4 µM (inactive) with NCI-H522. The GI50 is 23.2 µM (inactive) with SNB-19, 0.241 µM (active) in the experiment on CAKI-1, 37.8 µM (inactive) with IGROV-1 and 48.5 µM (inactive) in the experiment with RPMI-8226.

`COc1ccc2c(c1)[n+]([O-])c(-c1nc3ccccc3s1)c(N)[n+]2[O-]`: the GI50 in the experiment with SK-MEL-5 is 38.8 µM (inactive); with HCT-15, 89.5 µM; in the experiment with 786-0, > 100 µM (inactive); in the experiment on OVCAR-8, > 100 µM (inactive); with OVCAR-5, > 100 µM (inactive); in the experiment on COLO 205, 36.5 µM (inactive). Besides, the GI50 with SF-539 is > 100 µM (inactive); in the experiment with SN12C it was > 100 µM (inactive); with NCI-H522, 51.3 µM (inactive); in the experiment with SNB-19, > 100 µM (inactive); in the experiment with CAKI-1 it was > 100 µM (inactive); in the experiment with IGROV-1, > 100 µM (inactive). For the same molecule, the GI50 with RPMI-8226 is 35.5 µM (inactive).

Consider `C=C=C(C(=O)OC)[S+]([O-])c1ccccc1[N+](=O)[O-]` (stereo not drawn), for which the GI50 in the experiment on SK-MEL-5 is > 100 µM (inactive); with UACC-62, > 100 µM (inactive); in the experiment on HCT-15, 59 µM; in the experiment with CCRF-CEM, 24.7 µM (inactive); in the experiment with 786-0, > 100 µM (inactive); in the experiment on OVCAR-8, > 100 µM (inactive). The GI50 in the experiment on TK-10 is > 100 µM (inactive); in the experiment with OVCAR-5 it was > 100 µM (inactive); with COLO 205, > 100 µM (inactive); in the experiment with SF-539, > 100 µM (inactive); with SN12C, > 100 µM (inactive); in the experiment with NCI-H522, 22.3 µM (inactive). The GI50 with SNB-19, in the experiment with CAKI-1, with IGROV-1 and with RPMI-8226 was > 100 µM (inactive) throughout.

As to `COc1ccc(OC(C)=O)c2c1CCC=CC2=O`, the GI50 in the experiment on SK-MEL-5 was 15.6 µM (inactive); in the experiment on UACC-62, 13.4 µM (inactive); in the experiment on LOX IMVI, 4.7 µM (inactive); with HCT-15 it was 14.5 µM; in the experiment with CCRF-CEM it was 3.44 µM (inactive); with 786-0, 17.9 µM (inactive). In addition, the GI50 with OVCAR-8 is 16.8 µM (inactive); in the experiment with TK-10 it was 18.3 µM (inactive); with OVCAR-5, 16.7 µM (inactive); in the experiment with COLO 205, 9.2 µM (inactive); in the experiment on SF-539 it was 16.9 µM (inactive); in the experiment with SN12C, 17.1 µM (inactive). Besides, the GI50 was 1.86 µM (inactive) in the experiment on NCI-H522, 17.6 µM (inactive) with SNB-19, 17.7 µM (inactive) in the experiment with IGROV-1 and 1.01 µM (active) in the experiment on RPMI-8226.

`COc1ccc(/C=c2\sc3nnc(CCC(=O)Nc4cccc(C(F)(F)F)c4)n3c2=O)cc1`: the GI50 in the experiment on SK-MEL-5 is > 100 µM (inactive); in the experiment on UACC-62, > 62.8 µM (inactive); in the experiment on LOX IMVI it was > 100 µM (inactive); in the experiment on HCT-15, greater than 100 µM; with CCRF-CEM, 37.2 µM (inactive); with 786-0 it was > 71.8 µM (inactive). The GI50 with OVCAR-8 is 83.4 µM (inactive); in the experiment with TK-10, > 100 µM (inactive); in the experiment with OVCAR-5, > 100 µM (inactive); in the experiment with COLO 205 it was > 100 µM (inactive); with SF-539, > 100 µM (inactive); in the experiment on SN12C it was > 100 µM (inactive). The GI50 with SNB-19 was > 100 µM (inactive); in the experiment with CAKI-1, > 79.8 µM (inactive); in the experiment with IGROV-1, > 100 µM (inactive); in the experiment on RPMI-8226 it was 38.4 µM (inactive).

Turning to `CCOc1ccccc1NC(=O)/C=C1\NC(=O)CS1`, the GI50 in the experiment with SK-MEL-5 is > 100 µM (inactive); in the experiment with UACC-62, > 100 µM (inactive); in the experiment on LOX IMVI, > 100 µM (inactive); in the experiment with CCRF-CEM it was 69 µM (inactive); in the experiment on 786-0, > 100 µM (inactive); in the experiment with OVCAR-8, > 100 µM (inactive). Besides, the GI50 in the experiment with TK-10 is > 100 µM (inactive); in the experiment on OVCAR-5, > 100 µM (inactive); in the experiment on COLO 205, > 100 µM (inactive); with SF-539, > 100 µM (inactive); in the experiment with SN12C, > 100 µM (inactive); in the experiment on NCI-H522 it was 86.1 µM (inactive). Moreover, the GI50 with SNB-19 is > 100 µM (inactive); with CAKI-1, > 100 µM (inactive); with IGROV-1, > 100 µM (inactive); with RPMI-8226 it was 62.5 µM (inactive).

With `N=C(N)N/N=C(/CC1OC(=O)c2ccccc21)c1ccc2ccccc2c1` (stereo not drawn), the GI50 was 21.4 µM (inactive) in the experiment on SK-MEL-5; 17.9 µM (inactive) with UACC-62; 23.1 µM (inactive) with LOX IMVI; 15.3 µM in the experiment on HCT-15; 15.1 µM (inactive) in the experiment on CCRF-CEM; 17.1 µM (inactive) in the experiment with 786-0. Also, the GI50 is 15.8 µM (inactive) in the experiment on OVCAR-8; 18.1 µM (inactive) in the experiment on TK-10; 30.1 µM (inactive) in the experiment with OVCAR-5; 19.6 µM (inactive) in the experiment with COLO 205; 13.2 µM (inactive) with SF-539; 19.6 µM (inactive) in the experiment on SN12C. Further, the GI50 in the experiment with NCI-H522 is 14.2 µM (inactive); with SNB-19, > 100 µM (inactive); in the experiment with CAKI-1, > 100 µM (inactive); in the experiment on IGROV-1 it was 22.1 µM (inactive); in the experiment with RPMI-8226, 17.1 µM (inactive).

As for `O=c1[nH]c(Br)nc2c(N3CCCCC3)c[nH]c12`, the GI50 with SK-MEL-5 was > 100 µM (inactive); with UACC-62, > 100 µM (inactive); with LOX IMVI, > 100 µM (inactive); with HCT-15 it was greater than 100 µM; with CCRF-CEM, > 100 µM (inactive); in the experiment with 786-0 it was > 100 µM (inactive). In addition, the GI50 with OVCAR-8, in the experiment with TK-10, in the experiment on OVCAR-5, in the experiment with COLO 205, in the experiment on SF-539 and in the experiment with SN12C was > 100 µM (inactive) each time. Further, the GI50 with NCI-H522 was 28.3 µM (inactive); in the experiment with SNB-19 it was > 100 µM (inactive); in the experiment on CAKI-1, > 100 µM (inactive); with IGROV-1, > 100 µM (inactive); with RPMI-8226 it was > 100 µM (inactive).

Regarding `Cc1ccccc1N(CC(=O)O)S(=O)(=O)c1ccccc1`, the GI50 with SK-MEL-5 is > 100 µM (inactive); in the experiment with UACC-62 it was > 100 µM (inactive); in the experiment with LOX IMVI, > 100 µM (inactive); in the experiment with HCT-15 it was greater than 100 µM; in the experiment with CCRF-CEM, > 100 µM (inactive); in the experiment with 786-0, > 100 µM (inactive). Besides, the GI50 in the experiment on OVCAR-8, with TK-10, with OVCAR-5, in the experiment with COLO 205, in the experiment with SF-539 and in the experiment on SN12C was > 100 µM (inactive) in each case. The GI50 with NCI-H522, with SNB-19, with CAKI-1, with IGROV-1 and in the experiment on RPMI-8226 was > 100 µM (inactive) in each case.

Consider `COc1cc(-c2cc(=O)c3c(O)c(OC)c(OC)c(OC)c3o2)ccc1O`, for which the GI50 in the experiment with SK-MEL-5 was 15.3 µM (inactive); in the experiment with UACC-62, 14.8 µM (inactive); in the experiment on LOX IMVI, 16.8 µM (inactive); with HCT-15 it was 7.74 µM; in the experiment with CCRF-CEM it was 22.4 µM (inactive); in the experiment on 786-0, 29.8 µM (inactive). For the same molecule, the GI50 was 16.3 µM (inactive) in the experiment with OVCAR-8; 28.2 µM (inactive) with TK-10; > 100 µM (inactive) in the experiment with OVCAR-5; > 10 µM (inactive) with COLO 205; 11.8 µM (inactive) with SF-539; 26.7 µM (inactive) in the experiment on SN12C. For the same molecule, the GI50 in the experiment with NCI-H522 was 17.1 µM (inactive); with SNB-19, 34 µM (inactive); in the experiment with IGROV-1 it was 4.84 µM (inactive); in the experiment on RPMI-8226 it was 19 µM (inactive).

For the molecule `COc1cc(/C=C\c2ccc(Br)cc2)cc(OC)c1OC`, the GI50 with SK-MEL-5 is 0.000527 µM (active); in the experiment on UACC-62 it was 0.000404 µM (active); with LOX IMVI, 0.000811 µM (active); in the experiment on HCT-15, 0.00333 µM; in the experiment on CCRF-CEM, 0.000352 µM (active); with 786-0, 0.00043 µM (active). The GI50 in the experiment on OVCAR-8 was 0.00161 µM (active); with OVCAR-5 it was 35.4 µM (inactive); in the experiment with COLO 205, 0.00486 µM (active); with SF-539 it was 0.000463 µM (active); in the experiment on SN12C, 0.00168 µM (active); with NCI-H522, 0.000357 µM (active). For the same molecule, the GI50 with SNB-19 was 0.0057 µM (active); with CAKI-1 it was 0.01 µM (active); in the experiment with IGROV-1, 0.0124 µM (active); with RPMI-8226, 0.000582 µM (active).

Values taken from ChEMBL document CHEMBL1201862, “PubChem BioAssay data set” (2004).
